# Assays:
# [1] = Solubility of 5-azacytidine in various solvents at ambient temperature (visual, solvent aliquot addition); format: physicochemical; details: thermodynamic from solid
# Protocol: Solubility was estimated by treating a weighed sample of 5-azacytidine with measured aliquots of the test solvent at ambient temperature, with shaking and/or sonication between aliquots. Dissolution was determined by visual inspection. Solubility numbers were calculated by dividing the […]. The actual solubilities may be greater than the numbers calculated because of the use of solvent aliquots that were too large or because of slow dissolution rates. […] The solubility number is expressed as “greater than” if dissolution occurred on addition of the first solvent aliquot.
# [2] = system: subjects with higher-risk MDS; details: Phase III study, administered subcutaneously; cited from earlier work
smiles,measurement,setting,value
"Nc1ncn([C@@H]2O[C@H](CO)[C@@H](O)[C@H]2O)c(=O)n1 [5-azacytidine, 4-amino-1-β-D-ribofuranosyl-1,3,5-triazin-2(1H)-one]",solubility,"[1]; 1:1 methanol/water, aqueous with cosolvent or surfactant or cyclodextrin, 1:1 methanol/water",2800 µg/mL
same,solubility,"[1]; 1:2 methanol/water, aqueous with cosolvent or surfactant or cyclodextrin, 1:2 methanol/water",3100 µg/mL
same,solubility,"[1]; 1:2 methanol/water, aqueous with cosolvent or surfactant or cyclodextrin, 1:2 methanol/water (second line printed with this solvent)",4600 µg/mL
same,solubility,"[1]; DMF, organic solvent or mixture",1700 µg/mL
same,solubility,"[1]; DMSO, organic solvent or mixture",2200 µg/mL
same,Survival and time to AML transformation or death,[2],significantly prolonged survival and time to AML transformation or death
